pIC50: −log10 of the molar value.
Columns and labels:
[1] = molecular target: T1, BRD4 Bromo Domain 2 [BRD4(2)] (Homo sapiens, UniProt O60885); experiment: BRD4(2)/acetylated peptide H4 binding assay (TR-FRET); conditions: inhibition of interaction between His6-tagged BRD4(2) (amino acids 357-445) and acetylated histone H4 peptide
T1 construct: N-terminally His6-tagged BRD4(2) (amino acids 357-445); made in house; host or cells: E. coli
Description: Protein-Protein Interaction Assay: BRD4/Acetylated Peptide H4 Binding Assay
2. Assay Description for BRD4 Bromo Domain 2 [BRD4(2)]
To assess the BRD4(2) binding strength of the substances described in this application, the ability thereof to inhibit the interaction between BRD4(2) and acetylated histone H4 in a dose-dependent manner was quantified.
For this purpose, a time-resolved fluorescence resonance energy transfer (TR-FRET) assay was used, which measures the binding between N-terminally His6-tagged BRD4(2) (amino acids 357-445) and a synthetic acetylated histone H4 (Ac-H4) peptide with sequence SGRGK(Ac)GGK(Ac)GLGK(Ac)GGAK(Ac)RHRKVLRDNGSGSK-biotin. The recombinant BRD4(2) protein produced in house according to Filippakopoulos et al., Cell, 2012, 149:214-231 was expressed in E. coli and purified by means of (Ni-NTA) affinity and (Sephadex G-75) size exclusion chromatography. The Ac-H4 peptide can be purchased, for example, from Biosyntan (Berlin, Germany).
In the assay, typically 11 different concentrations of each substance (0.1 nM, 0.33 nM, 1.1 nM, 3.8 nM, 13 nM, 44 nM, 0.15 μM, 0.51 μM, 1.7 μM, 5.9 μM and 20 μM) were analysed as duplicates on the same microtitre plate. For this purpose, 100-fold concentrated solutions in DMSO were prepared by serial dilutions (1:3.4) of a 2 mM stock solution into a clear, 384-well microtitre plate (Greiner Bio-One, Frickenhausen, Germany). From this, 50 nl were transferred into a black test plate (Greiner Bio-One, Frickenhausen, Germany). The test was started by the addition of 2 μl of a 2.5-fold concentrated BRD4(2) solution (final concentration typically 100 nM in the 5 μl of reaction volume) in aqueous assay buffer [50 mM HEPES pH 7.5, 50 mM sodium chloride (NaCl); 50 mM potassium fluoride (KF); 0.25 mM CHAPS and 0.05% serum albumin (BSA)] to the substances in the test plate. This was followed by a 10-minute incubation step at 22° C. for the pre-equilibration of putative complexes between BRD4(2) and the substances.
The mixture was then incubated in the dark at 22° C. for one hour and then at 4° C. for at least 3 hours and for no longer than overnight. The formation of BRD4(2)/Ac-H4 complexes was determined by the measurement of the resonance energy transfer from the streptavidin-Eu chelate to the anti-6His-XL665 antibody present in the reaction. For this purpose, the fluorescence emission was measured at 620 nm and 665 nm after excitation at 330-350 nm in a TR-FRET measuring instrument, for example a Rubystar or Pherastar (both from BMG Lab Technologies, Offenburg, Germany) or a Viewlux (Perkin-Elmer). The ratio of the emissions at 665 nm and at 622 nm was taken as an indicator of the amount of BRD4(2)/Ac-H4 complexes formed.
The data (ratios) obtained were normalized, with 0% inhibition corresponding to the mean from the measurements for a set of controls (typically 32 data points) in which all the reagents were present. In these, in place of test substances, 50 nl of DMSO (100%) were used Inhibition of 100% corresponded to the mean from the measurements for a set of controls (typically 32 data points) in which all the reagents except BRD4(2) were present. The IC50 was determined by regression analysis based on a 4-parameter equation (minimum, maximum, IC50, Hill; Y=max+(min−max)/(1+(X/IC50)Hill)).

B16F10 cells = experiment: B16F10 cell proliferation assay (alamarBlue); type: cell-based; conditions: B16-F10; inhibition of cell proliferation, 96 hours, mouse melanoma cell line
Procedure: In accordance with the invention, the ability of the substances to inhibit cell proliferation was determined Cell viability was determined by means of the alamarBlue® reagent (Invitrogen) in a Victor X3 Multilabel Reader (Perkin Elmer). The excitation wavelength was 530 nm and the emission wavelength […].
The B16F10 cells (ATCC, CRL-6475) were sown at a concentration of 300-500 cells/well in 100 μl of growth medium (DMEM with phenol red, 10% FCS) on 96-well microtitre plates.
After overnight incubation at 37° C., the fluorescence values were determined (CI values). Then the plates were treated with various substance dilutions (1E-5 M, 3E-6 M, 1E-6 M, 3E-7 M, 1E-7 M, 3E-8 M, 1E-8 M) and incubated at 37° C. over 96 hours (MOLM-13, B16F10 cells) or 120 hours (MOLP-8 cells). Subsequently, the fluorescence values were determined (CO values). For the data analysis, the CI values were subtracted from the CO values and the results were compared between cells which had been treated with various dilutions of the substance or only with buffer solution. The IC50 values (substance concentration needed for 50% inhibition of cell proliferation) were calculated therefrom.
B16F10 mouse melanoma cell line

SMILES | pIC50 [1] | pIC50 (B16F10 cells)
C[C@@H]1C(=O)N(C)c2ccc(Nc3ccc(C(=O)NC4CCN(C)CC4)cc3)cc2N1Cc1c(F)cccc1F (stereo in doubt) [Example 39, 4-{[4-(2,6-difluorobenzyl)-1,3-dimethyl-2-oxo-1,2,3,4-tetrahydroquinoxalin-6-yl]amino}-N-(1-methylpiperidin-4-yl)benzamide] | 6.58 | 5.48
C[C@@H]1C(=O)N(C)c2ccc(Nc3ccc(C(=O)NC4CCC(N5CCN(CC6CC6)CC5)CC4)cc3)cc2N1Cc1c(F)cccc1F (stereo in doubt) [Example 40, N-{4-[4-(cyclopropylmethyl)piperazin-1-yl]cyclohexyl}-4-{[4-(2,6-difluorobenzyl)-1,3-dimethyl-2-oxo-1,2,3,4-tetrahydroquinoxalin-6-yl]amino}benzamide] | 6.41 | 5.30
C[C@@H]1C(=O)N(C)c2ccc(Nc3ccc(C(=O)NC4CCCC4)cc3)cc2N1C1CCCC1 [Example 1, N-cyclopentyl-4-{[(3R)-4-cyclopentyl-1,3-dimethyl-2-oxo-1,2,3,4-tetrahydroquinoxalin-6-yl]amino}benzamide] | 6.49 | 5.82
C[C@@H]1C(=O)N(C)c2ccc(Nc3ccc(C(=O)NC4CC4)cc3)cc2N1C1CCCC1 [Example 2, 4-{[(3R)-4-cyclopentyl-1,3-dimethyl-2-oxo-1,2,3,4-tetrahydroquinoxalin-6-yl]amino}-N-cyclopropylbenzamide] | 6.65 | 5.77
CC(C)NC(=O)c1ccc(Nc2ccc3c(c2)N(C2CCCC2)[C@H](C)C(=O)N3C)cc1 [Example 7, 4-{[(3R)-4-cyclopentyl-1,3-dimethyl-2-oxo-1,2,3,4-tetrahydroquinoxalin-6-yl]amino}-N-isopropylbenzamide] | 6.80 | 5.99
C[C@@H]1C(=O)N(C)c2ccc(Nc3ccc(C(=O)N(C)C)cc3)cc2N1C1CCCC1 [Example 8, 4-{[(3R)-4-cyclopentyl-1,3-dimethyl-2-oxo-1,2,3,4-tetrahydroquinoxalin-6-yl]amino}-N,N-dimethylbenzamide] | 6.77 | 6.23
C[C@@H]1C(=O)N(C)c2ccc(Nc3ccc(C(=O)NC4CCN(C)CC4)cc3)cc2N1Cc1ccccc1 [Example 11, 4-{[(3R)-4-benzyl-1,3-dimethyl-2-oxo-1,2,3,4-tetrahydroquinoxalin-6-yl]amino}-N-(1-methylpiperidin-4-yl)benzamide] | 6.97 | 6.11
C[C@@H]1C(=O)N(C)c2ccc(Nc3ccc(C(=O)N4CC5(CCS5(=O)=O)C4)cc3)cc2N1Cc1ccccc1 [Example 16, (3R)-4-benzyl-6-({4-[(1,1-dioxido-1-thia-6-azaspiro[3.3]hept-6-yl)carbonyl]phenyl}amino)-1,3-dimethyl-3,4-dihydroquinoxalin-2(1H)-one] | 7.01 | 6.60
COc1ccc(CN2c3cc(Nc4ccc(C(=O)N5CCOCC5)cc4)ccc3N(C)C(=O)[C@H]2C)cc1 [Example 18, (3R)-4-(4-methoxybenzyl)-1,3-dimethyl-6-{[4-(morpholin-4-ylcarbonyl)phenyl]amino}-3,4-dihydroquinoxalin-2(1H)-one] | 6.95 | 6.54
COc1ccc(CN2c3cc(Nc4ccc(C(=O)NCC5COC5)cc4)ccc3N(C)C(=O)[C@H]2C)cc1 [Example 19, 4-{[(3R)-4-(4-methoxybenzyl)-1,3-dimethyl-2-oxo-1,2,3,4-tetrahydroquinoxalin-6-yl]amino}-N-(oxetan-3-ylmethyl)benzamide] | 6.96 | 6.61
C[C@@H]1C(=O)N(C)c2ccc(Nc3ccc(C(=O)NCC4COC4)cc3)cc2N1C1CCCCCC1 [Example 25, 4-{[(3R)-4-cycloheptyl-1,3-dimethyl-2-oxo-1,2,3,4-tetrahydroquinoxalin-6-yl]amino}-N-(oxetan-3-ylmethyl)benzamide] | 6.45 | –

The next compounds have a higher pIC50 [1] than those just listed; values first:

pIC50 [1] | pIC50 (B16F10 cells) | SMILES
7.07 | 6.49 | C[C@@H]1C(=O)N(C)c2ccc(Nc3ccc(S(=O)(=O)N(C)C)cc3)cc2N1C1CCCC1 [Example 3, 4-{[(3R)-4-cyclopentyl-1,3-dimethyl-2-oxo-1,2,3,4-tetrahydroquinoxalin-6-yl]amino}-N,N-dimethylbenzenesulphonamide]
7.08 | 6.42 | COc1ccc(CN2c3cc(Nc4ccc(C(=O)NC5CCN(C)CC5)cc4)ccc3N(C)C(=O)[C@H]2C)cc1 [Example 17, 4-{[(3R)-4-(4-methoxybenzyl)-1,3-dimethyl-2-oxo-1,2,3,4-tetrahydroquinoxalin-6-yl]amino}-N-(1-methylpiperidin-4-yl)benzamide]
7.10 | 6.43 | C[C@@H]1C(=O)N(C)c2ccc(Nc3ccc(C(=O)N4CCOCC4)cc3)cc2N1C1CCCC1 [Example 6, (3R)-4-cyclopentyl-1,3-dimethyl-6-{[4-(morpholin-4-ylcarbonyl)phenyl]amino}-3,4-dihydroquinoxalin-2(1H)-one]
7.11 | 6.75 | C[C@@H]1C(=O)N(C)c2ccc(Nc3ccc(S(=O)(=O)N(C)C)cc3)cc2N1Cc1ccccc1 [Example 14, 4-{[(3R)-4-benzyl-1,3-dimethyl-2-oxo-1,2,3,4-tetrahydroquinoxalin-6-yl]amino}-N,N-dimethylbenzenesulphonamide]
7.19 | – | C[C@@H]1C(=O)N(C)c2ccc(Nc3ccc(C(=O)NC4CC4)cc3)cc2N1Cc1ccccc1 [Example 10, 4-{[(3R)-4-benzyl-1,3-dimethyl-2-oxo-1,2,3,4-tetrahydroquinoxalin-6-yl]amino}-N-cyclopropylbenzamide]
7.21 | 6.44 | C[C@@H]1C(=O)N(C)c2ccc(Nc3ccc(C(=O)NCC4COC4)cc3)cc2N1Cc1ccccc1 [Example 9, 4-{[(3R)-4-benzyl-1,3-dimethyl-2-oxo-1,2,3,4-tetrahydroquinoxalin-6-yl]amino}-N-(oxetan-3-ylmethyl)benzamide]
7.29 | 6.87 | C[C@@H]1C(=O)N(C)c2ccc(Nc3ccc(S(=O)(=O)N4CCOCC4)cc3)cc2N1Cc1ccccc1 [Example 13, (3R)-4-benzyl-1,3-dimethyl-6-{[4-(morpholin-4-ylsulphonyl)phenyl]amino}-3,4-dihydroquinoxalin-2(1H)-one]
7.29 | 6.65 | C[C@@H]1C(=O)N(C)c2ccc(Nc3ccc(S(=O)(=O)N4CCN(C)CC4)cc3)cc2N1Cc1ccccc1 [Example 15, (3R)-4-benzyl-1,3-dimethyl-6-({4-[(4-methylpiperazin-1-yl)sulphonyl]phenyl}amino)-3,4-dihydroquinoxalin-2(1H)-one]
7.33 | 6.75 | C[C@@H]1C(=O)N(C)c2ccc(Nc3ccc(C(=O)N4CCOCC4)cc3)cc2N1Cc1ccccc1 [Example 12, (3R)-4-benzyl-1,3-dimethyl-6-{[4-(morpholin-4-ylcarbonyl)phenyl]amino}-3,4-dihydroquinoxalin-2(1H)-one]

Reference: patent US20150344444A1, “BET-PROTEIN-INHIBITING DIHYDROXYQUINOXALINONES” (BAYER PHARMA AKTIENGESELLSCHAFT, priority 2012, published 2015)
